Columns and labels:
Format in all cases: cell-based
[1] = system: E. coli Carbapenem Resistant; experiment: Efficacy at 30 seconds (Table 2); conditions: 0.01 to 0.05% aqueous solution
Pseudomona aeruginosa = experiment: Antimicrobial efficacy of HOCl skin cleanser (Table 1); conditions: 0.01% HOCl; 30 seconds
[2] = system: Trichophyton mentagrophytes; experiment: Efficacy at 30 seconds (Table 2); conditions: 0.01 to 0.05% aqueous solution

## OCl [HOCl, hypochlorous acid]
[1]
  % Reduction: 99.999%
  Log Reduction: >5.57 Log10
Pseudomona aeruginosa
  % Reduction: 99.99%
  Log Reduction: >5.94 Log10
[2]
  % Reduction: >99.99%
  Log Reduction: >4.92 Log10

Reference: patent publication US20190125790A1, “USE OF HYPOCHLOROUS ACID AS A TOPICAL ANTIMICROBIAL” (BIIOSMART TECHNOLOGIES LLC, priority 2016, published 2019)
